Experimental data taken from PMC5896373 (Molecular Pharmacology, 2018).
Substitutions are numbered along the chain they refer to. pIC50: −log10 of the molar value.

Experiments:
[1] = biological target: T1, chimeric P2X7/1 receptor 105–114 (Homo sapiens, UniProt Q99572, E112P/G113K/I21V/K110V/L109I/M24R/N16P/N25R/Q22R/R20V/S23N/T19I/Y26L); assay: Two-electrode voltage clamp of ATP-evoked currents in Xenopus oocytes; format: cell-based
T1 construct: expressed in transfected cells; host or cells: Xenopus laevis oocytes (cRNA injection)
T1 sequence (Q99572 1-595 N16P/T19I/R20V/I21V/Q22R/S23N/M24R/N25R/Y26L/L109I/K110V/E112P/G113K): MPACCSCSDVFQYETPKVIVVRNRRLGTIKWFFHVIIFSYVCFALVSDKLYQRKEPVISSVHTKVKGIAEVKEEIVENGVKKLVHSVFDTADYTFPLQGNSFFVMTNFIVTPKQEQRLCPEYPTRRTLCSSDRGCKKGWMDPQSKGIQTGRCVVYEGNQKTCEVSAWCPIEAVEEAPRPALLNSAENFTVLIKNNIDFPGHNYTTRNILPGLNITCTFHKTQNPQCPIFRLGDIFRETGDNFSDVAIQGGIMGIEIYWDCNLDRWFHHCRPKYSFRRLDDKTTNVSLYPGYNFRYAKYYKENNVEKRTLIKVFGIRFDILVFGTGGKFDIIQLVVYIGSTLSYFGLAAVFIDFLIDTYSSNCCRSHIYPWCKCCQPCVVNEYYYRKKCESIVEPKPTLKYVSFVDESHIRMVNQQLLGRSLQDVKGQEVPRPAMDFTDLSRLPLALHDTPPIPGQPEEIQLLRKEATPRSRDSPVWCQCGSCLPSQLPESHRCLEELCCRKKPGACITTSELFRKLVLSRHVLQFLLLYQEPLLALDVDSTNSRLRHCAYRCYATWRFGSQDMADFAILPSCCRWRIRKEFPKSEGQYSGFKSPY
Protocol: (§1) Additional point mutants were made using the QuikChange mutagenesis kit (Stratagene California, La Jolla, CA). The production of the correct mutations and absence of coding errors was determined by DNA sequencing (Automated ABI Sequencing Service, University of Leicester, UK). cRNA was generated for the mutants and 50 nl (50 ng) was injected into manually defoliculated stage V Xenopus laevis oocytes using an Inject+Matic microinjector (J.A. Gabay, Inject+Matic, Geneva, Switzerland). Injected oocytes were stored at 16°C in ND96 buffer [in millimolar concentrations, NaCl 96, KCl 2, CaCl2 1.8, MgCl2 1, sodium pyruvate 5, and HEPES 5 (pH 7.6) supplemented with 50 μg/ml gentamycin and 50 μg/ml tetracycline]. Three to seven days postinjection two-electrode voltage clamp recordings were made from oocytes bathed in divalent-free ND96 buffer (in millimolar concentrations, NaCl 96, KCl 2, sodium pyruvate 5, HEPES 5, and 0.1 flufenamic acid, pH 7.6). Oocytes were voltage clamped at a holding potential of −60 mV with a GeneClamp500B amplifier (Molecular Devices).
(§2) Inhibition by the antagonists was expressed as the percentage of the peak current amplitude of an EC90 concentration of ATP recorded before the application of antagonist (ATP gave reproducible responses to ATP in the absence of antagonist). Inhibition curves were fitted with the Hill equation (variable slope) using GraphPad Prism 6 (GraphPad Software, San Diego, CA). […] Individual concentration-response curves were generated for individual experiments, and statistical analysis was carried out on the data generated. […] Data are shown as mean ± S.E.M. In all cases n ≥ 3 for all data points.

[2] = biological target: T2, chimeric P2X7/1 receptor 164–168 (Homo sapiens, UniProt Q99572, A166G/I21V/M24R/N16P/N25R/Q22R/R20V/S165F/S23N/T19I/V164I/Y26L); assay: as above; format: cell-based; settings: chimera 164–168; for pIC50: inhibition of EC90 ATP response
T2 construct: expressed in transfected cells; host or cells: Xenopus laevis oocytes (cRNA injection)
T2 sequence (Q99572 1-595 N16P/T19I/R20V/I21V/Q22R/S23N/M24R/N25R/Y26L/V164I/S165F/A166G): T1 sequence (Q99572 1-595 N16P/T19I/R20V/I21V/Q22R/S23N/M24R/N25R/Y26L/L109I/K110V/E112P/G113K) with I109L, V110K, P112E, K113G, V164I, S165F, A166G
Protocol: as §1
(§3) Inhibition by the antagonists was expressed as the percentage of the peak current amplitude of an EC90 concentration of ATP recorded before the application of antagonist (ATP gave reproducible responses to ATP in the absence of antagonist). Inhibition curves were fitted with the Hill equation (variable slope) using GraphPad Prism 6 (GraphPad Software, San Diego, CA). […] Individual concentration-response curves were generated for individual experiments, and statistical analysis was carried out on the data generated. When shown in figures, the inhibition curves are fitted to the mean normalized data. […] Data are shown as mean ± S.E.M. In all cases n ≥ 3 for all data points.

[3] = biological target: T3, P2X7R point mutant H85P (Homo sapiens, UniProt Q99572, H85P/I21V/M24R/N16P/N25R/Q22R/R20V/S23N/T19I/Y26L); assay: as above; format: cell-based; settings: EC90 ATP, mean ± S.E.M.
T3 construct: expressed in transfected cells; host or cells: Xenopus laevis oocytes (cRNA injection)
Protocol: as §1
Inhibition by the antagonists was expressed as the percentage of the peak current amplitude of an EC90 concentration of ATP recorded before the application of antagonist (ATP gave reproducible responses to ATP in the absence of antagonist). […]

[4] = biological target: T4, P2X7R mutant Insert G99 (Homo sapiens, UniProt Q99572, I21V/INS99D/M24R/N16P/N25R/Q22R/R20V/S23N/T19I/Y26L); assay: as above; format: cell-based; settings: EC90 ATP, mean ± S.E.M.
T4 construct: expressed in transfected cells; host or cells: Xenopus laevis oocytes (cRNA injection)
T4 sequence (Q99572 with tags, fused parts or gaps N16P/T19I/R20V/I21V/Q22R/S23N/M24R/N25R/Y26L/INS99D): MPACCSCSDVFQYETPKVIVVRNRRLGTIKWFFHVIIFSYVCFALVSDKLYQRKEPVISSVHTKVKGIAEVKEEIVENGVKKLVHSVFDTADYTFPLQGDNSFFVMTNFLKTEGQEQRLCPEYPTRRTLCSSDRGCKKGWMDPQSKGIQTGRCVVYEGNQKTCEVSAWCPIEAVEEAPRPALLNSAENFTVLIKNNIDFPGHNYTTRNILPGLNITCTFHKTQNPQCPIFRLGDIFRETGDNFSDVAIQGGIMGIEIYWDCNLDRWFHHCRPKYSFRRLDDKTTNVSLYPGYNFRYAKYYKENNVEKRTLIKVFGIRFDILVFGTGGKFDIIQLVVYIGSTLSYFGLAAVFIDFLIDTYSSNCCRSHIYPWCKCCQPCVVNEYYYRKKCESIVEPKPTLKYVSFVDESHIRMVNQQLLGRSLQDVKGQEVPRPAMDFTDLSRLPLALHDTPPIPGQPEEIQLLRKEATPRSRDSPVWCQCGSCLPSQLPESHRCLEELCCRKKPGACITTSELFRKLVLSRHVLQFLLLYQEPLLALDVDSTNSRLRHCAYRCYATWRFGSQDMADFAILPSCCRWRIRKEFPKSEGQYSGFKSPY
Protocol: (§4) Injected oocytes were stored at 16°C in ND96 buffer [in millimolar concentrations, NaCl 96, KCl 2, CaCl2 1.8, MgCl2 1, sodium pyruvate 5, and HEPES 5 (pH 7.6) supplemented with 50 μg/ml gentamycin and 50 μg/ml tetracycline]. Three to seven days postinjection two-electrode voltage clamp recordings were made from oocytes bathed in divalent-free ND96 buffer (in millimolar concentrations, NaCl 96, KCl 2, sodium pyruvate 5, HEPES 5, and 0.1 flufenamic acid, pH 7.6). Oocytes were voltage clamped at a holding potential of −60 mV with a GeneClamp500B amplifier (Molecular Devices).
as §3

[5] = biological target: T5, P2X7R point mutant S165F (Homo sapiens, UniProt Q99572, I21V/M24R/N16P/N25R/Q22R/R20V/S165F/S23N/T19I/Y26L); assay: as above; format: cell-based; settings: EC90 ATP, mean ± S.E.M.
T5 construct: expressed in transfected cells; host or cells: Xenopus laevis oocytes (cRNA injection)
Protocol: as §4, §3

[6] = biological target: T6, P2X7R point mutant E305A (Homo sapiens, UniProt Q99572, E305A/I21V/M24R/N16P/N25R/Q22R/R20V/S23N/T19I/Y26L); assay: as above; format: cell-based; settings: EC90 ATP, mean ± S.E.M.
T6 construct: expressed in transfected cells; host or cells: Xenopus laevis oocytes (cRNA injection)
Protocol: as §4, §2

[7] = biological target: T7, P2X7R point mutant K306C (Homo sapiens, UniProt Q99572, I21V/K306C/M24R/N16P/N25R/Q22R/R20V/S23N/T19I/Y26L); assay: as above; format: cell-based; settings: EC90 ATP, mean ± S.E.M.
T7 construct: expressed in transfected cells; host or cells: Xenopus laevis oocytes (cRNA injection)
Protocol: as §4, §2

[8] = biological target: T8, P2X7R point mutant F95A (Homo sapiens, UniProt Q99572, F95A/I21V/M24R/N16P/N25R/Q22R/R20V/S23N/T19I/Y26L); assay: cell-based
T8 construct: expressed in transfected cells; host or cells: Xenopus laevis oocytes (cRNA injection)
T8 sequence (Q99572 whole entry N16P/T19I/R20V/I21V/Q22R/S23N/M24R/N25R/Y26L/F95A): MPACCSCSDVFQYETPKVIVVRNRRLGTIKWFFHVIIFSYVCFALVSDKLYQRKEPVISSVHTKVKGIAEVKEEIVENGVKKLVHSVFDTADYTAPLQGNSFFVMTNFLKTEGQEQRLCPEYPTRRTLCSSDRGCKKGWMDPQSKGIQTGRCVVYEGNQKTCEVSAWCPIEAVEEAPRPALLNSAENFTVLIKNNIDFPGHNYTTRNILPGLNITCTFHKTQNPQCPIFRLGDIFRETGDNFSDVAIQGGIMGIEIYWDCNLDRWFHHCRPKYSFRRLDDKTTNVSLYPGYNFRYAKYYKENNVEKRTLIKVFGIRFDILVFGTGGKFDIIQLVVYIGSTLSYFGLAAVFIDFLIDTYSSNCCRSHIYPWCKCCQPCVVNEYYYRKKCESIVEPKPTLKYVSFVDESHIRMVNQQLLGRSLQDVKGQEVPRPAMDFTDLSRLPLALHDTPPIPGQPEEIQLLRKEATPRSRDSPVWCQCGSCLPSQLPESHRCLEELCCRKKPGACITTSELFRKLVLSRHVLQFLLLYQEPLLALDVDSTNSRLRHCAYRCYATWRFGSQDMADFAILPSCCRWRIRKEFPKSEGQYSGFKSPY
Protocol: as §4, §2

T3 sequence (Q99572 whole entry N16P/T19I/R20V/I21V/Q22R/S23N/M24R/N25R/Y26L/H85P): as the sequence (Q99572 whole entry N16P/T19I/R20V/I21V/Q22R/S23N/M24R/N25R/Y26L/F95A) above, with H85P, A95F counted along it
T7 sequence (Q99572 whole entry N16P/T19I/R20V/I21V/Q22R/S23N/M24R/N25R/Y26L/K306C): as the sequence (Q99572 whole entry N16P/T19I/R20V/I21V/Q22R/S23N/M24R/N25R/Y26L/F95A) above, with A95F, K306C counted along it
T6 sequence (Q99572 whole entry N16P/T19I/R20V/I21V/Q22R/S23N/M24R/N25R/Y26L/E305A): as the sequence (Q99572 whole entry N16P/T19I/R20V/I21V/Q22R/S23N/M24R/N25R/Y26L/F95A) above, with A95F, E305A counted along it
T5 sequence (Q99572 whole entry N16P/T19I/R20V/I21V/Q22R/S23N/M24R/N25R/Y26L/S165F): as the sequence (Q99572 whole entry N16P/T19I/R20V/I21V/Q22R/S23N/M24R/N25R/Y26L/F95A) above, with A95F, S165F counted along it

Q: With `Cl.Clc1cccc(-c2nnnn2Cc2cccnc2)c1Cl.O` [A438079, 3-(5-(2,3-dichlorophenyl)-1H-tetrazol-1-yl)methyl pyridine hydrochloride hydrate] as the molecule, how does the pIC50 [1] read?
A: 6.30

Q: And the pIC50 [2]?
A: 5.00

Q: And the pIC50 [3]?
A: 6.00

Q: And the pIC50 [4]?
A: 4.90

Q: What about the pIC50 [5] of the same molecule?
A: 5.10

Q: And the pIC50 [6]?
A: 6.70

Q: And the pIC50 [7]?
A: 5.80

Q: What about the pIC50 [8] of the same molecule?
A: < 4.00

Q: Which results are given for `COc1ccc(CC(=O)NC(N=C(NC#N)Nc2cccc3ncccc23)C(C)(C)C)cc1OC` (stereo not drawn) [A740003, N-[1-[[(cyanoamino)(5-quinolinylamino)methylene]amino]-2,2-dimethylpropyl]-3,4-dimethoxybenzeneacetamide]?
A: pIC50 [1]: 7.00; effect on antagonist potency relative to P2X7-2Nβ ([1]; chimera 105–114): no effect; fold decrease in antagonist sensitivity relative to P2X7-2Nβ [2]: ~5 fold; pIC50 [2]: 6.40; pIC50 [3]: 6.40; pIC50 [4]: 5.80; pIC50 [5]: 6.70; pIC50 [6]: 7.60; pIC50 [7]: 6.50; pIC50 [8]: 6.00
